Assay results reported in patent publication US11993599B2, “Therapeutic compounds” (Genentech, Inc., priority 2021, dated 2024).

Legend:
[1] = molecular target: T1, BRG1 (Homo sapiens, UniProt P51532); experiment: Immunofluorescence assay for BRG1 degradation in SW1573 cells; format: cell-based; details: 20 hours incubation; for DC50: immunofluorescence mean nuclear signal, read-out: BRG1 IF Degradation IC50; for Dmax: SW1573, 20 h, normalized to a known degrader control, read-out: BRG1 IF Degradation Sinf (%)
T1 construct: either BRM primary antibody (Cell signaling Cat #11966) or BRG primary antibody (Abcam, ab 110641); endogenous in cells; host or cells: SW1573
T1 sequence (P51532 whole entry): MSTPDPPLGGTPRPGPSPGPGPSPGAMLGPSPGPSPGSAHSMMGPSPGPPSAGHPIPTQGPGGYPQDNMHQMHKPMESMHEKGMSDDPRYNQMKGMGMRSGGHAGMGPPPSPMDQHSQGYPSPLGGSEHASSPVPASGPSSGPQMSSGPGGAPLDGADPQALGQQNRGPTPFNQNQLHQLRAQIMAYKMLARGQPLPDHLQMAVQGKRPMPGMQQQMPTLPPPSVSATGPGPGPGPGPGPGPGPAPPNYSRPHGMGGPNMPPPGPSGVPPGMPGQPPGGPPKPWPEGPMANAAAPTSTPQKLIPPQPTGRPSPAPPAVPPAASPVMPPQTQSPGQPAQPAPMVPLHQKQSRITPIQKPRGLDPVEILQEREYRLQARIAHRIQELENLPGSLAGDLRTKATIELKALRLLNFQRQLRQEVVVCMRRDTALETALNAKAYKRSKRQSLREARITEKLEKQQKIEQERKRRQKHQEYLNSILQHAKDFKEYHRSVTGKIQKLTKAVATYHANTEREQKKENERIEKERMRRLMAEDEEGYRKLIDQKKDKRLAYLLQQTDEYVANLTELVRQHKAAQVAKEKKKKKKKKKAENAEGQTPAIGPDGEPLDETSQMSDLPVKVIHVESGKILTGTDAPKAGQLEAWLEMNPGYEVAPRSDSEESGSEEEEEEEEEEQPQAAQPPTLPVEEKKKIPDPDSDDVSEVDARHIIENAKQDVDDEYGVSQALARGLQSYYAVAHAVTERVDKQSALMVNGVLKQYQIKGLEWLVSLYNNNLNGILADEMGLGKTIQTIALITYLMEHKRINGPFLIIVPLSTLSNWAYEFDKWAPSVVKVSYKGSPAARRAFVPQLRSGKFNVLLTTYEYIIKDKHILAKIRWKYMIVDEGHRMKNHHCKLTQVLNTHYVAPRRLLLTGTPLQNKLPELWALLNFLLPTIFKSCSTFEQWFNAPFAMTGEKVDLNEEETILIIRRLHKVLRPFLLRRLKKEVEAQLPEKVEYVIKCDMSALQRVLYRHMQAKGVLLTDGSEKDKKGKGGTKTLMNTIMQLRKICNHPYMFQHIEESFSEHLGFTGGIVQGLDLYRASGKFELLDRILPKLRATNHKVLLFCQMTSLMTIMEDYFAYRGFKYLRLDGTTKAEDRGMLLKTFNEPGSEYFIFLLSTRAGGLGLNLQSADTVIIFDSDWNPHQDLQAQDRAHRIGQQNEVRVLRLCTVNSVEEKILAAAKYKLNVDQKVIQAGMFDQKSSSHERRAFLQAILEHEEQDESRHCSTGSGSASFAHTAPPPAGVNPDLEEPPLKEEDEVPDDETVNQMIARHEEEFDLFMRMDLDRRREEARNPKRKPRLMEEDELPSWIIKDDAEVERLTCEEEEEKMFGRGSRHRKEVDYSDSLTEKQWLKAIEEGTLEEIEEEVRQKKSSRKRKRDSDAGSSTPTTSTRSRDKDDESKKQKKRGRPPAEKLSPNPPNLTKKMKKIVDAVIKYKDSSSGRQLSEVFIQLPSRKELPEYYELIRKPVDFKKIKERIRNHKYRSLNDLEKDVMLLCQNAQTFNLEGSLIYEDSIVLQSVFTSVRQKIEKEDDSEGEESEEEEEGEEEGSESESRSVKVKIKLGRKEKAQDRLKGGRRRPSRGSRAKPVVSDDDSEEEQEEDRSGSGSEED
How it was run: (§1)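 SW1573 cells were treated with compound for 20 h, fixed, permeabilized and immunostained for BRM or BRG1 with a Hoechst nuclear counterstain. Mean nuclear signal intensity per cell was quantified by high-content imaging, normalized to a known degrader control, and dose-response curves were fit with a floating maximum to derive Dmax.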

[2] = molecular target: BRM (Homo sapiens, UniProt P51531); experiment: Immunofluorescence assay for BRM degradation in SW1573 cells; format: cell-based; design: treated overnight at 4° C. with either BRM primary antibody (Cell signaling Cat #11966) or BRG primary antibody; endogenous in cells; host or cells: SW1573; details: 20 hours incubation; for DC50: immunofluorescence mean nuclear signal, read-out: BRM IF Degradation IC50; for BRM IF Degradation Sinf (%): normalized to a known degrader control
Chain of BRM (P51531 whole entry): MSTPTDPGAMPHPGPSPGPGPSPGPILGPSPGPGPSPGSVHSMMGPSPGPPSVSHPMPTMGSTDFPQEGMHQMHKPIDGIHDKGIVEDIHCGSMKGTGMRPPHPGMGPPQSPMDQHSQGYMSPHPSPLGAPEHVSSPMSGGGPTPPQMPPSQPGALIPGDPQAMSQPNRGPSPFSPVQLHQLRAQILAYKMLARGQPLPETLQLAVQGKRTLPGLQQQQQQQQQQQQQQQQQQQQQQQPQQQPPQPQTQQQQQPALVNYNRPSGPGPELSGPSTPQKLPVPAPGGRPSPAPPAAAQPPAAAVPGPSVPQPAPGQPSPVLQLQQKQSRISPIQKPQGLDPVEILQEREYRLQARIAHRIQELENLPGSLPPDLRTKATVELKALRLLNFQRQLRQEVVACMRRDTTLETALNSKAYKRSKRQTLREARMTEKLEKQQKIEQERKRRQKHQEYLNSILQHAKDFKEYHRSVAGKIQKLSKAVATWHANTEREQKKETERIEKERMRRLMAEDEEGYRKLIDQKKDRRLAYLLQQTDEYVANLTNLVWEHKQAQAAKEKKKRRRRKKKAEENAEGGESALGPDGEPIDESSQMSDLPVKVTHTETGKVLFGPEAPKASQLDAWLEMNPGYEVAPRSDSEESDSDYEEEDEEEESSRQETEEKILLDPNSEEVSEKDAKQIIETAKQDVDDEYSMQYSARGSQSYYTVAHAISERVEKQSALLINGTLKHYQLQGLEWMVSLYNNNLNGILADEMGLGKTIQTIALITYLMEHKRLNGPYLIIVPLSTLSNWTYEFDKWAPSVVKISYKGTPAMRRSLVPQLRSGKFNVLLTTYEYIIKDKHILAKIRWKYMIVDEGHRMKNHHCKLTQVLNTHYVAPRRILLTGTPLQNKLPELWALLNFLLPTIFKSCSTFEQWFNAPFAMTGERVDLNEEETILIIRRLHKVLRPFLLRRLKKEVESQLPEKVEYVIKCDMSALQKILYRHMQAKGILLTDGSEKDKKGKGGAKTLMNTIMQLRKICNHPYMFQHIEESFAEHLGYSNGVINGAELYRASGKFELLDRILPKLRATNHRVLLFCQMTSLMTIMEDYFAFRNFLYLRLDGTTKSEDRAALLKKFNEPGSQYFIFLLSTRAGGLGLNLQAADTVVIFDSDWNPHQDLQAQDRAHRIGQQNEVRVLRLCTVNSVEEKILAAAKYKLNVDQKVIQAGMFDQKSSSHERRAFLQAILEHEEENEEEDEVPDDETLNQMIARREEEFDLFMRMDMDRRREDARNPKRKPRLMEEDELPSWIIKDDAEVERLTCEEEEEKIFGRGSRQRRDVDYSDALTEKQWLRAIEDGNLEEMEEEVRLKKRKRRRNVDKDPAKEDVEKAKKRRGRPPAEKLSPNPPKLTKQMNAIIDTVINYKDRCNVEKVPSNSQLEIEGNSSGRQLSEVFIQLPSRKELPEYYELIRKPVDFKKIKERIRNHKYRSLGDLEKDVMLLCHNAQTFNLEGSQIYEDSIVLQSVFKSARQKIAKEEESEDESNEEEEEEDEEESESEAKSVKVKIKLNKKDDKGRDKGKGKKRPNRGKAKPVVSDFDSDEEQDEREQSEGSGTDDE
How it was run: as §1

| SMILES | DC50 [1] [nM] | Dmax [1] [%] | DC50 [2] [nM] | BRM IF Degradation Sinf (%) [2] |
| --- | --- | --- | --- | --- |
| Nc1nnc(-c2ccccc2O)cc1N1CC2CCC(C1)N2c1ccnc(C#CCN2CCC3(CCCO3)C2)c1 (stereo not shown) [Compound 44, 2-[6-amino-5-[8-[2-[3-(1-oxa-7-azaspiro[4.4]nonan-7-yl)prop-1-ynyl]-4-pyridyl]-3,8-diazabicyclo[3.2.1]octan-3-yl]pyridazin-3-yl]phenol] | 10 to 100 | 30 to 70 | < 10 | E (E indicates −30%-−70%) |
| Nc1nnc(-c2ccccc2O)cc1N1CC2CCC(C1)N2c1ccnc(C#CCN2CCCC3(CC2)CC3(F)F)c1 (stereo not shown) [Compound 208, 2-[6-amino-5-[8-[2-[3-(2,2-difluoro-7-azaspiro[2.6]nonan-7-yl)prop-1-ynyl]-4-pyridyl]-3,8-diazabicyclo[3.2.1]octan-3-yl]pyridazin-3-yl]phenol] | < 10 | 30 to 70 | < 10 | E (E indicates −30%-−70%) |
| CC1CN(CC#Cc2cc(N3C4CCC3CN(c3cc(-c5ccccc5O)nnc3N)C4)ccn2)CC(C)O1 (stereo not shown) [Compound 79, 2-[6-amino-5-[8-[2-[3-(2,6-dimethylmorpholin-4-yl)prop-1-ynyl]-4-pyridyl]-3,8-diazabicyclo[3.2.1]octan-3-yl]pyridazin-3-yl]phenol] | > 100 |  | 10 to 100 | E (E indicates −30%-−70%) |
| Nc1nnc(-c2ccccc2O)cc1N1CC2CCC(C1)N2c1ccnc(C#CCN2CCC3COCC3C2)c1 (stereo not shown) [Compound 88, 2-[5-[8-[2-[3-(3,3a,4,6,7,7a-hexahydro-1H-furo[3,4-c]pyridin-5-yl)prop-1-ynyl]-4-pyridyl]-3,8-diazabicyclo[3.2.1]octan-3-yl]-6-amino-pyridazin-3-yl]phenol] | < 10 | 0 to 30 | < 10 | E (E indicates −30%-−70%) |
| Nc1nnc(-c2ccccc2O)cc1N1CC2CCC(C1)N2c1ccnc(C#CCN2CC(C(F)F)C2)c1 [Compound 95, 2-[6-amino-5-[8-[2-[3-[3-(difluoromethyl)azetidin-1-yl]prop-1-ynyl]-4-pyridyl]-3,8-diazabicyclo[3.2.1]octan-3-yl]pyridazin-3-yl]phenol] | < 10 | 30 to 70 | < 10 | E (E indicates −30%-−70%) |
| CC1CCCCN(CC#Cc2cc(N3C4CCC3CN(c3cc(-c5ccccc5O)nnc3N)C4)ccn2)C1 (stereo not shown) [Compound 192, 2-[6-amino-5-[8-[2-[3-(3-methylazepan-1-yl)prop-1-ynyl]-4-pyridyl]-3,8-diazabicyclo[3.2.1]octan-3-yl]pyridazin-3-yl]phenol] | < 10 | 71 to 120 | < 10 | F (F indicates −71%-−120%) |
| Nc1nnc(-c2ccccc2O)cc1N1CC2CCC(C1)N2c1ccnc(C#CCN2CC3CCC2C3)c1 (stereo not shown) [Compound 141, 2-[6-amino-5-[8-[2-[3-(2-azabicyclo[2.2.1]heptan-2-yl)prop-1-ynyl]-4-pyridyl]-3,8-diazabicyclo[3.2.1]octan-3-yl]pyridazin-3-yl]phenol] | < 10 | 30 to 70 | < 10 | E (E indicates −30%-−70%) |
| Nc1nnc(-c2ccccc2O)cc1N1CC2CCC(C1)N2c1ccnc(C#CCN2CCCCCC2)n1 [Compound 245, 2-(6-amino-5-(8-(2-(3-(azepan-1-yl)prop-1-yn-1-yl)pyrimidin-4-yl)-3,8-diazabicyclo[3.2.1]octan-3-yl)pyridazin-3-yl)phenol] | < 10 | 30 to 70 | < 10 | F (F indicates −71%-−120%) |
| Nc1nnc(-c2ccccc2O)cc1N1CC2CCC(C1)N2c1ccnc(C#CCN2C[C@H]3CCCC[C@H]3C2)c1 [Compound 60, 2-[5-[8-[2-[3-[(3aS,7aR)-1,3,3a,4,5,6,7,7a-octahydroisoindol-2-yl]prop-1-ynyl]-4-pyridyl]-3,8-diazabicyclo[3.2.1]octan-3-yl]-6-amino-pyridazin-3-yl]phenol] | < 10 | 30 to 70 | < 10 | E (E indicates −30%-−70%) |
| N#CC1CCCN(CC#Cc2cc(N3C4CCC3CN(c3cc(-c5ccccc5O)nnc3N)C4)ccn2)C1 (stereo not shown) [Compound 120, 1-[3-[4-[3-[3-amino-6-(2-hydroxyphenyl)pyridazin-4-yl]-3,8-diazabicyclo[3.2.1]octan-8-yl]-2-pyridyl]prop-2-ynyl]piperidine-3-carbonitrile] | 10 to 100 | 30 to 70 | 10 to 100 | E (E indicates −30%-−70%) |
| Nc1nnc(-c2ccccc2O)cc1N1CC2CCC(C1)N2c1ccnc(C#CCN2CCCOCC23CC3)c1 [Compound 110, 2-[6-amino-5-[8-[2-[3-(8-oxa-4-azaspiro[2.6]nonan-4-yl)prop-1-ynyl]-4-pyridyl]-3,8-diazabicyclo[3.2.1]octan-3-yl]pyridazin-3-yl]phenol] | > 100 |  | < 10 | E (E indicates −30%-−70%) |
| Nc1nnc(-c2ccccc2O)cc1N1CC2CCC(C1)N2c1ccnc(C#CCCN2CCCCCC2)c1 [Compound 222, 2-[6-amino-5-[8-[2-[4-(azepan-l-yl)but-1-ynyl]-4-pyridyl]-3,8-diazabicyclo[3.2.1]octan-3-yl]pyridazin-3-yl]phenol] | < 10 | 71 to 120 | < 10 | F (F indicates −71%-−120%) |
| CC1(CO)CN(CC#Cc2cc(N3C4CCC3CN(c3cc(-c5ccccc5O)nnc3N)C4)ccn2)C1 [Compound 170, 2-[6-amino-5-[8-[2-[3-[3-(hydroxymethyl)-3-methyl-azetidin-1-yl]prop-1-ynyl]-4-pyridyl]-3,8-diazabicyclo[3.2.1]octan-3-yl]pyridazin-3-yl]phenol] | > 100 | 30 to 70 | 10 to 100 | E (E indicates −30%-−70%) |
| Nc1nnc(-c2ccccc2O)cc1N1CC2CCC(C1)N2c1ccnc(C#CCN2CCCOCC2)c1 [Compound 70, 2-[6-amino-5-[8-[2-[3-(l,4-oxazepan-4-yl)prop-1-ynyl]-4-pyridyl]-3,8-diazabicyclo[3.2.1]octan-3-yl]pyridazin-3-yl]phenol] | < 10 | 30 to 70 | < 10 | E (E indicates −30%-−70%) |
| Nc1nnc(-c2ccccc2O)cc1N1CC2CCC(C1)N2c1ccnc(C#CCN2CCOC3CC32)c1 (stereo not shown) [Compound 74, 2-[6-amino-5-[8-[2-[3-(2-oxa-5-azabicyclo[4.1.0]heptan-5-yl)prop-1-ynyl]-4-pyridyl]-3,8-diazabicyclo[3.2.1]octan-3-yl]pyridazin-3-yl]phenol] | > 100 |  | 10 to 100 | E (E indicates −30%-−70%) |
| Nc1nnc(-c2ccccc2O)cc1N1CC2CCC(C1)N2c1ccnc(C#CCN2CC(CC(F)F)C2)c1 [Compound 158, 2-[6-amino-5-[8-[2-[3-[3-(2,2-difluoroethyl)azetidin-1-yl]prop-1-ynyl]-4-pyridyl]-3,8-diazabicyclo[3.2.1]octan-3-yl]pyridazin-3-yl]phenol] | < 10 | 30 to 70 | < 10 | F (F indicates −71%-−120%) |
